As a reminder, the Ki is a dissociation constant, usually derived from enzyme kinetics or from competition with a known ligand.

Test [1] has as its system PGR (Progesterone Receptor alpha) gene expression. The experiment in a line: In vivo target inhibition (IVTI) assay (PGR RT-qPCR) in MCF7 tumors. More on the design: species or system mice. The conditions noted are these: MCF7 tumor xenograft, 30 mg/kg orally, 24 hours. As to the method: The purpose of this IVTI assay is to measure the ability of a test compound (SERD) to inhibit PGR (Progesterone Receptor alpha) gene expression (transcription) downstream of ERα in xenograft tumors implanted in mice.
Implant female NOD SCID mice (22-25 g) from Envigo RMS, Inc., Madison, Wisconsin with 5×10e^6 MCF7 ER+ve breast cancer cells (ATCC, #HTB-22) subcutaneously in the right flank region in 1:1 HBSS+[…]™ solution (200 μL). Implant a […] pellet (0.18 mg/pellet, 90 day release, from Innovative research) subcutaneously 1 day prior to tumor cell implantation. […] Sacrifice animals using isoflurane anesthesia plus cervical dislocation. Flash freeze tumors and store at −80° C. until processing for RNA isolation and RT-qPCR assay. Collect blood in EDTA tubes, spin down for plasma, and freeze at −80° C. in a 96-well plate. Determine test compound exposures using mass spectrometry.
Pulverize tumors in liquid nitrogen and lyse in 1×RNA lysis buffer (from RNA isolation kits) using Matrix D beads (MP Biomedical, #6913-500) in a FASTPREP-24™ Cell Disrupter machine (MP Biomedical). […] Measure isolated RNA concentration by diluting samples in RNase free water and measuring the absorbance at 260 nm on a plate reader (SpectraMax190). Subtract the average 260 nm absorbance measurement of the blank (RNase free water only) from the 260 nm measurements of all other RNA samples. […]

The target of another test is T1, ERα (wild type) (Homo sapiens, UniProt P03372).
T1 sequence (P03372 1-595): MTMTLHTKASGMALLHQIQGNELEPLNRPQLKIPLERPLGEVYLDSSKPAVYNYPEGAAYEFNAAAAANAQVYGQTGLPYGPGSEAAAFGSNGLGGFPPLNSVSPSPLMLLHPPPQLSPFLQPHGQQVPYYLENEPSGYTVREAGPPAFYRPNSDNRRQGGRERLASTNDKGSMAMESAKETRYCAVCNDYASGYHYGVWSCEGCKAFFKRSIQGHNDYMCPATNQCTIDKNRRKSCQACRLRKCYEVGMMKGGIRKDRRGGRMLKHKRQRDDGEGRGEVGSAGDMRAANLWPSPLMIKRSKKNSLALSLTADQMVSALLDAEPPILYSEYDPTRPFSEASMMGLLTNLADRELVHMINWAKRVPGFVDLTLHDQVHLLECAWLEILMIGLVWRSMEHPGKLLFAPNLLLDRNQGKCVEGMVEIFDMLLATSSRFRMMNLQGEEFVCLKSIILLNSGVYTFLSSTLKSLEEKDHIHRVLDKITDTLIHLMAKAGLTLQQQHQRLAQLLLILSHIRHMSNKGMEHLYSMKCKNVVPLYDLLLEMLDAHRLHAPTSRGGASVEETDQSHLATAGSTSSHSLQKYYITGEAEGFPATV
Briefly: ERα (wild type) competition binding assay. To be noted: recombinant ERα wild type, 3H-estradiol competition, n=3. As to the method: The purpose of the following ER competition binding assays is to determine the binding affinity of a test compound against ERα (wild type) and ERα (Y537S mutant) See Fanning et al., “Estrogen receptor alpha somatic mutations Y537S and D538G confer breast cancer endocrine resistance by stabilizing the activating function-2 binding conformation,” eLife 2016; 5:e12792.
Run the competition binding assay in a buffer containing 50 mM HEPES, pH 7.5, 1.5 mM EDTA, 150 mM NaCl, 10% glycerol, 1 mg/mL ovalbumin, and 5 mM DTT, using 0.025 µCi per well ^3H-estradiol (118 Ci/mmol, 1 mCi/mL), 7.2 ng/well ERα (wild type), or 7.2 ng/well ERα (Y537S mutant). Add the test compound at 10 different concentrations ranging from 10,000 nM to 0.5 nM, and determine nonspecific binding in the presence of 1 μM of […]. Incubate the binding reaction (140 μL) for 4 hours at room temperature, and then add cold dextran-charcoal buffer (70 μL) (containing per 50 mL of assay buffer, 0.75 g of charcoal and 0.25 g of dextran) to each reaction. Mix the plates for 8 minutes on an orbital shaker at 4° C. and then centrifuge at 3000 rpm at 4° C. for 10 minutes. […] After an incubation of 2.5 hours, read the plates in a Wallac Microbeta counter. […]

For the compound `O=C(c1ccc(OCCN2CC(CF)C2)cc1)c1c(-c2ccc(C(F)(F)F)cc2F)cnc2cc(O)ccc12` [Example 1, (4-{2-[3-(Fluoromethyl)azetidin-1-yl]ethoxy}phenyl){3-[2-fluoro-4-(trifluoromethyl)phenyl]-7-hydroxyquinolin-4-yl}methanone], the “inhibition of PRα (PGR) expression” value in test [1] worked out at 57%. Further, the Ki at ERα (wild type) stood at 3.78 ± 0.74 nM.

The values above are taken from US12128040B2, “Selective estrogen receptor degraders” (Eli Lilly and Company, priority 2018, dated 2024).
